Experimental data: US4132787A, “Pharmaceutical compositions containing a gamma-resorcylic acid derivative in the treatment of thrombosis” (Science Union et Cie, priority 1975, dated 1979)

Experiments:
α1 -anti-trypsins = assay: fibrinolytic inhibitors: α1-anti-trypsins titrated by radial immuno-diffusion in standard plasma; format: biochemical; settings: one hour at 37° C.
Experimental: (§1) The main inhibitors of anti-plasminic type, viz. α2 -macroglobulins, α1 -anti-trypsins and anti-thrombin III were titrated according to the radial immuno-diffusion techniques.
(§2) Three concentrations of compound I were incorporated to a pool of standard plasma and incubated for one hour at 37° C. At non-lytic doses by deficiency (suspended standard clots) the compound I gives a decrease of about 10% of α2 -macroglobulins level, a decrease of about 20% of α1 -anti-trypsins level and a decrease of about 10% of anti-thrombin III level.

fibrinogen = fibrinogen level in standard plasma incubated with compound I; format: biochemical; settings: non-lytic doses by excess (high concentrations)
fibrinolytic activity = fibrinolytic activity in male rats after P.O. administration; format: in vivo; settings: 25 mg/kg P.O.
Experimental: The fibrinolytic activity was determined on a batch of 7 male rats after administration of 25 mg/kg P.O. of compound I. It was observed that the fibrinolytic activity increases respectively of 14 and 11%, 60 and 90 minutes after the administration of the product. The return to basis values takes place 3 hours after this administration.

erythrocytes from human = assay: aggregation of erythrocytes induced by Dextran, in vitro, human erythrocytes; format: cell-based; settings: at 0.001 and 0.002 molar
Excerpt: (§3) The inhibiting action of compound I on the aggregation of erythrocytes induced by Dextran was evidenced in vitro on erythrocytes from human, dog and rabbit, according to the method of Von Kaulla K.N., ArzneimittelForschung, Drug Research 25 (2) 152-155 (1975).

platelet stickiness = assay: platelet stickiness, Salzman method, in the rabbit; format: in vivo; settings: 50 mg/kg P.O., 4 hours after administration
Experimental: By using the Salzman method, J. Lab. Clin. Med. 62, 724 (1963), it was observed that the compound I decreases by 20% the platelet stickiness, 4 hours after the administration of 50 mg/kg P.O. of the product in the rabbit.

monomers of fibrin = assay: level of monomers of fibrin in the rabbit after I.V. administration; format: in vivo; settings: 5 mg/kg I.V.
Excerpt: This decrease reaches 23%, ten minutes after the injection.

erythrocytes from rabbit = assay: aggregation of erythrocytes induced by Dextran, in vitro, rabbit erythrocytes; format: cell-based; settings: at 0.001 and 0.002 molar
Excerpt: as §3

[1] = toxicity (LD50) in mice, I.V. and P.O.; settings: mouse, in vivo
plasmatic clot = assay: retraction of plasmatic clot in vitro; format: biochemical; settings: concentrations ≥ 1,79 mg/ml of plasma, 60 minutes
Experimental: The inhibiting action of compound I on the retraction of plasmatic clot was evidenced in vitro. At the concentrations ≥ 1,79 mg/ml of plasma, the compound I inhibits totally (100%) the normal retraction of the clot measured for a lapse of 60 minutes.

anti-thrombin III = assay: fibrinolytic inhibitors: anti-thrombin III titrated by radial immuno-diffusion in standard plasma; format: biochemical; settings: one hour at 37° C.
Experimental: as §1, §2

α2 -macroglobulins = assay: fibrinolytic inhibitors: α2-macroglobulins titrated by radial immuno-diffusion in standard plasma; format: biochemical; settings: one hour at 37° C.
Experimental: as §1, §2

erythrocytes from dog = assay: aggregation of erythrocytes induced by Dextran, in vitro, dog erythrocytes; format: cell-based; settings: at 0.001 and 0.002 molar
Excerpt: as §3

Compound: CCCCCc1cc(O)c(C(=O)O)c(O)c1 [compound I, 4-n-pentyl-6-hydroxy salicylic acid]
- decrease of α1 anti-trypsins level (α1 -anti-trypsins; lytic doses): 80%
- decrease of α1 -anti-trypsins level (α1 -anti-trypsins; non-lytic doses by deficiency): about 20%
- fibrinogen level (fibrinogen): important decrease
- return of fibrinolytic activity to basis values, time after administration (fibrinolytic activity): 3 h
- increase of fibrinolytic activity (fibrinolytic activity; 60 minutes after administration): 14%
- increase of fibrinolytic activity (fibrinolytic activity; 90 minutes after administration): 11%
- inhibition of the aggregation of erythrocytes induced by Dextran (erythrocytes from human): 100%
- decrease of platelet stickiness (platelet stickiness): 20%
- decrease of the level of monomers of fibrin (monomers of fibrin; ten minutes after injection): 23%
- decrease of the level of monomers of fibrin (monomers of fibrin; two minutes after injection): 10%
- inhibition of the aggregation of erythrocytes induced by Dextran (erythrocytes from rabbit): 100%
- LD50 ([1]; iv, I.V.): 50 to 100 mg/kg
- LD50 ([1]; po, P.O.): 1000 to 1500 mg/kg
- inhibition of the normal retraction of the clot (plasmatic clot): 100%
- decrease of anti-thrombin III level (anti-thrombin III; lytic doses): 50%
- decrease of anti-thrombin III level (anti-thrombin III; non-lytic doses by deficiency): about 10%
- decrease of α2 -macroglobulins level (α2 -macroglobulins; lytic doses): about 20%
- decrease of α2 -macroglobulins level (α2 -macroglobulins; non-lytic doses by deficiency): about 10%
- inhibition of the aggregation of erythrocytes induced by Dextran (erythrocytes from dog): 100%
